Measured values reported in paper PMC6437697 (Journal of Medicinal Chemistry, 2019).

Legend:
Assay in all cases: KINOMEscan
Assay type in all cases: binding
Conditions in all cases: read-out: % control activity remaining
ADCK3 = molecular target: T1, ADCK3 (Homo sapiens, UniProt Q8NI60)
T1 construct: purchased Eurofins DiscoverX KINOMEscan

BRAF(V600E) = molecular target: T2, BRAF(V600E) (Homo sapiens, UniProt P15056, V600E)
T2 construct: purchased Eurofins DiscoverX KINOMEscan

PIK3CA(E542K) = molecular target: T3, PIK3CA(E542K (Homo sapiens, UniProt P42336, E542K))
T3 construct: purchased Eurofins DiscoverX KINOMEscan

PRKCH = molecular target: T4, PRKCH (Homo sapiens, UniProt P24723)
T4 construct: purchased Eurofins DiscoverX KINOMEscan

SIK = molecular target: T5, SIK (Homo sapiens, UniProt P57059)
T5 construct: purchased Eurofins DiscoverX KINOMEscan

SNRK = molecular target: T6, SNRK (Homo sapiens, UniProt Q9NRH2)
T6 construct: purchased Eurofins DiscoverX KINOMEscan
T6 sequence (Q9NRH2 1-765): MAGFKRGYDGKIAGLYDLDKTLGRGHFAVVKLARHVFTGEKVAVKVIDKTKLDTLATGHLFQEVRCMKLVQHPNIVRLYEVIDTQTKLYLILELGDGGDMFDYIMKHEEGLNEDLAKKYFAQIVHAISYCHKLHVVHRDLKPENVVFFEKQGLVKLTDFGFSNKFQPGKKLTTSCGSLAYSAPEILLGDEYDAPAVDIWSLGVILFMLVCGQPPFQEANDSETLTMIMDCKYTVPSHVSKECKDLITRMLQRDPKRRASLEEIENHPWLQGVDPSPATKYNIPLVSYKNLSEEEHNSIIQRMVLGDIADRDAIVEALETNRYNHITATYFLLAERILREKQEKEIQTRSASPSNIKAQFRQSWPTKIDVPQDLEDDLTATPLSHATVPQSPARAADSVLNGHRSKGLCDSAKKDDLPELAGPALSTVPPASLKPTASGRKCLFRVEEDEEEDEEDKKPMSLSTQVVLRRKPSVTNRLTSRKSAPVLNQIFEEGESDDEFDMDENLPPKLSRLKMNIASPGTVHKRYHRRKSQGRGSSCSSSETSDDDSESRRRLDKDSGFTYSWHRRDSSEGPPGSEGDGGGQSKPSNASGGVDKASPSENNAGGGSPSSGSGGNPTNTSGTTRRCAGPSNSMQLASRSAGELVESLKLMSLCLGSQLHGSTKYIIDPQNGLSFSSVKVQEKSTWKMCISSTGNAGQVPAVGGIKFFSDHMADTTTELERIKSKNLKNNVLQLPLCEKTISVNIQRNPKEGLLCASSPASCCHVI

TAOK2 = molecular target: T7, TAOK2 (Homo sapiens, UniProt Q9UL54)
T7 construct: purchased Eurofins DiscoverX KINOMEscan
T7 sequence (Q9UL54 1-1235): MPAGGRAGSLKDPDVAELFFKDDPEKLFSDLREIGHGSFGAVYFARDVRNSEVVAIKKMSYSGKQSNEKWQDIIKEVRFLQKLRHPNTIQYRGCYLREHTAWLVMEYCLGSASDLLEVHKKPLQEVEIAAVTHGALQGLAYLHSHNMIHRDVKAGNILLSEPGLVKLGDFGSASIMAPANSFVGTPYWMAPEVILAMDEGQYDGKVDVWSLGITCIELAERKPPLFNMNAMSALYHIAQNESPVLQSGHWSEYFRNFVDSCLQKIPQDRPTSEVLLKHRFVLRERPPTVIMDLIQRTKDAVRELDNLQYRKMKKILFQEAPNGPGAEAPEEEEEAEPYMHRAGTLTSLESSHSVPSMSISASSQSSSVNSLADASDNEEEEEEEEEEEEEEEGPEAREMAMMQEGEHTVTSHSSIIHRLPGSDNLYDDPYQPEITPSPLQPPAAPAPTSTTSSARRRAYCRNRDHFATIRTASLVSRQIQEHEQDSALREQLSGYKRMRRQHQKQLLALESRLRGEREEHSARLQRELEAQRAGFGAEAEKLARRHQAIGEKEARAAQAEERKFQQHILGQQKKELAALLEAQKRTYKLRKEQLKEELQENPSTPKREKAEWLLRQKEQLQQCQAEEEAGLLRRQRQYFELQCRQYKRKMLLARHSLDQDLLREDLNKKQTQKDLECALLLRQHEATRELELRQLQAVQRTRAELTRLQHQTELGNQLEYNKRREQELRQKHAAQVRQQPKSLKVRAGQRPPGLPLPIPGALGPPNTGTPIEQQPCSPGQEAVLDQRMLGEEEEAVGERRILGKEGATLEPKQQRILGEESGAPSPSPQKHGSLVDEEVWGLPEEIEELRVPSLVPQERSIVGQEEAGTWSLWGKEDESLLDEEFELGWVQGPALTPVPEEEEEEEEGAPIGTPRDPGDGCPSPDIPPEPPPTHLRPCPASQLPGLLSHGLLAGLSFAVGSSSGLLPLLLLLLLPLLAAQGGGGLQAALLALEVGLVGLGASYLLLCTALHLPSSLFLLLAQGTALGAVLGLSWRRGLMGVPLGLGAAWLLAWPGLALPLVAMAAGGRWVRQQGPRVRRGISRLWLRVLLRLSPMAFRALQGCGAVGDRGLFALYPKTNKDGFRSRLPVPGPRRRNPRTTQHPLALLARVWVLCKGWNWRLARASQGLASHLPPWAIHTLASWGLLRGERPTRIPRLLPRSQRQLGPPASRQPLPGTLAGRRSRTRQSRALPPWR

TXK = molecular target: T8, TXK (Homo sapiens, UniProt P42681)
T8 construct: purchased Eurofins DiscoverX KINOMEscan
T8 sequence (P42681 1-527): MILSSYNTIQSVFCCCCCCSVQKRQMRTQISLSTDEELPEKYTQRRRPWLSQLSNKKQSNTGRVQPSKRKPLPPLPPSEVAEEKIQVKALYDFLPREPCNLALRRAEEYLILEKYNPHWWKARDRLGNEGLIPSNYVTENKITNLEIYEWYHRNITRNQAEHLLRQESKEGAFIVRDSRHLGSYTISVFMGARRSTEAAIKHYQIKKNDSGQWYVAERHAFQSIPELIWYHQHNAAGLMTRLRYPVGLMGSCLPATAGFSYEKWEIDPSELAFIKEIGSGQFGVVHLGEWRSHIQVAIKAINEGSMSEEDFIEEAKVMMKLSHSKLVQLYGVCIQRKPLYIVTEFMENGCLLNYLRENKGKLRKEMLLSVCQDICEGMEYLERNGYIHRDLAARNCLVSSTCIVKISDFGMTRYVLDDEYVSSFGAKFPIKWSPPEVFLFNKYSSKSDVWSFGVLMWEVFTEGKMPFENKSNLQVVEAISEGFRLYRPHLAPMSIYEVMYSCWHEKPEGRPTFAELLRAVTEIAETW

T2 sequence (P15056 whole entry V600E): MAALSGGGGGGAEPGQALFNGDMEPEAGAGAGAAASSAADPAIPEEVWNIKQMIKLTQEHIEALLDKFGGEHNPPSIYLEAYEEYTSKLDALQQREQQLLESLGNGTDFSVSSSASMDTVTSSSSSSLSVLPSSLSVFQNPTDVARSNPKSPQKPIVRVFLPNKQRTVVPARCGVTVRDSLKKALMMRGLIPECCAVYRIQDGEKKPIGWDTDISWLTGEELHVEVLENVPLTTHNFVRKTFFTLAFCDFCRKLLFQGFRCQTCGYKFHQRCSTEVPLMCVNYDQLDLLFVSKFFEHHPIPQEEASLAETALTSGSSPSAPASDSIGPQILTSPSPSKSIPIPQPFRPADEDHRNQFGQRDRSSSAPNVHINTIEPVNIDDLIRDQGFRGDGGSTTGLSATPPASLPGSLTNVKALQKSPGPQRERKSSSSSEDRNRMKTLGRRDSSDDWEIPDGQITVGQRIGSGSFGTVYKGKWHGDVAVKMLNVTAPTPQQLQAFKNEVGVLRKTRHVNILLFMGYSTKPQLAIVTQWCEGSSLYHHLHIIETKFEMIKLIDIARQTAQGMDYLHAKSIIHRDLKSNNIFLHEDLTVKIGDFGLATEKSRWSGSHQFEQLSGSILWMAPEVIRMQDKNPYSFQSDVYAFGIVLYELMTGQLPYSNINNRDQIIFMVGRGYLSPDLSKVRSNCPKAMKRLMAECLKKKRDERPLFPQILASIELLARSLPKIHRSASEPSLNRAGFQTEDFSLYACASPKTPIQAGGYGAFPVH
T4 sequence (P24723 whole entry): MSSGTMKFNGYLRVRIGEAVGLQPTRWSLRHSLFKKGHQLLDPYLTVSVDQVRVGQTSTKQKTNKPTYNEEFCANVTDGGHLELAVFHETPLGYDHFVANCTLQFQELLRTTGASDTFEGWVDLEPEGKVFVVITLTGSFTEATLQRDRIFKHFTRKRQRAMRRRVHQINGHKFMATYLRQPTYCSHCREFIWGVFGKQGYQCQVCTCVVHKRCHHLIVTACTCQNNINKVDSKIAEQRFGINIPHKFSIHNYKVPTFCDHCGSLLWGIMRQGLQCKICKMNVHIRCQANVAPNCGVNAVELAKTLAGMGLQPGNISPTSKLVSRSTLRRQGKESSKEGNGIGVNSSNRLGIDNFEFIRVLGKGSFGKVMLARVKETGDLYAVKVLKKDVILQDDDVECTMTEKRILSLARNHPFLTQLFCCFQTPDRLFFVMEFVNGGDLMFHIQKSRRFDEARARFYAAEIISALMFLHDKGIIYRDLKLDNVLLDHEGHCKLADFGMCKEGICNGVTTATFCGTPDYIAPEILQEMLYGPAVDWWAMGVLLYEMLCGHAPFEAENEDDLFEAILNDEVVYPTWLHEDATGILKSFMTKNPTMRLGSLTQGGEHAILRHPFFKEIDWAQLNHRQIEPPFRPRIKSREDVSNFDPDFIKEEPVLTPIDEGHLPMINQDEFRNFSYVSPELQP
T1 sequence (Q8NI60 163-647): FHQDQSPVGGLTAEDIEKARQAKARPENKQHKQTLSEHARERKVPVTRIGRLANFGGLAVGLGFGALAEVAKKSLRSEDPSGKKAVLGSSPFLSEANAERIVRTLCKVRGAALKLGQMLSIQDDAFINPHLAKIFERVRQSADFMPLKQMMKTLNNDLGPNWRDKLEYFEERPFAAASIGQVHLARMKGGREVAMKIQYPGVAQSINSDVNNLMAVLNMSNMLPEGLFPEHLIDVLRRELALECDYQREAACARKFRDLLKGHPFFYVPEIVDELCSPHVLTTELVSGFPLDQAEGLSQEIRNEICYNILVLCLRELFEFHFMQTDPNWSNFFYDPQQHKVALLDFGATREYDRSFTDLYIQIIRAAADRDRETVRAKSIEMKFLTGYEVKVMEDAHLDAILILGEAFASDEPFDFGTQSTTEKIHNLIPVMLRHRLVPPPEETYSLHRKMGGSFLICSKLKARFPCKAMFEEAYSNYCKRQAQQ
T5 sequence (P57059 whole entry): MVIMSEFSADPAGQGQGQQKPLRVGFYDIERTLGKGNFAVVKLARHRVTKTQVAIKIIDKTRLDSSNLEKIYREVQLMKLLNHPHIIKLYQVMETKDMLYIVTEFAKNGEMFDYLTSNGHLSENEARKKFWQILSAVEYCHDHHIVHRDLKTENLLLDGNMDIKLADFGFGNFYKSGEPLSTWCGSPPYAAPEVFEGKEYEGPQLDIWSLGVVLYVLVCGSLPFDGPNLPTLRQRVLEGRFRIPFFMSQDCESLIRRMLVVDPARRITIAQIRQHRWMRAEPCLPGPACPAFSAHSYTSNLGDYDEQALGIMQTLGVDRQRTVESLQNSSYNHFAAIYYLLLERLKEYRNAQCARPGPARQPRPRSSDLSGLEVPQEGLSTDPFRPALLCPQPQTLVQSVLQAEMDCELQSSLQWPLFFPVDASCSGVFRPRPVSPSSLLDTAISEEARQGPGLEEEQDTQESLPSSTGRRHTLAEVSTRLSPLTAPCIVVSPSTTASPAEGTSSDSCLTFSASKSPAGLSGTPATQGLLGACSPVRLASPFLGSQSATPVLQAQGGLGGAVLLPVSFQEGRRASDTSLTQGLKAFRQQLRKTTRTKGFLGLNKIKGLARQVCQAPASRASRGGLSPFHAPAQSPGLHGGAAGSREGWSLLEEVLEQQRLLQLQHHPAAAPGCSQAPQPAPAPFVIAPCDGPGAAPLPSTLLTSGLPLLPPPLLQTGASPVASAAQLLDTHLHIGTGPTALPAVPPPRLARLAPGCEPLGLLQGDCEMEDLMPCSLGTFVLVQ
T3 sequence (P42336 whole entry E542K): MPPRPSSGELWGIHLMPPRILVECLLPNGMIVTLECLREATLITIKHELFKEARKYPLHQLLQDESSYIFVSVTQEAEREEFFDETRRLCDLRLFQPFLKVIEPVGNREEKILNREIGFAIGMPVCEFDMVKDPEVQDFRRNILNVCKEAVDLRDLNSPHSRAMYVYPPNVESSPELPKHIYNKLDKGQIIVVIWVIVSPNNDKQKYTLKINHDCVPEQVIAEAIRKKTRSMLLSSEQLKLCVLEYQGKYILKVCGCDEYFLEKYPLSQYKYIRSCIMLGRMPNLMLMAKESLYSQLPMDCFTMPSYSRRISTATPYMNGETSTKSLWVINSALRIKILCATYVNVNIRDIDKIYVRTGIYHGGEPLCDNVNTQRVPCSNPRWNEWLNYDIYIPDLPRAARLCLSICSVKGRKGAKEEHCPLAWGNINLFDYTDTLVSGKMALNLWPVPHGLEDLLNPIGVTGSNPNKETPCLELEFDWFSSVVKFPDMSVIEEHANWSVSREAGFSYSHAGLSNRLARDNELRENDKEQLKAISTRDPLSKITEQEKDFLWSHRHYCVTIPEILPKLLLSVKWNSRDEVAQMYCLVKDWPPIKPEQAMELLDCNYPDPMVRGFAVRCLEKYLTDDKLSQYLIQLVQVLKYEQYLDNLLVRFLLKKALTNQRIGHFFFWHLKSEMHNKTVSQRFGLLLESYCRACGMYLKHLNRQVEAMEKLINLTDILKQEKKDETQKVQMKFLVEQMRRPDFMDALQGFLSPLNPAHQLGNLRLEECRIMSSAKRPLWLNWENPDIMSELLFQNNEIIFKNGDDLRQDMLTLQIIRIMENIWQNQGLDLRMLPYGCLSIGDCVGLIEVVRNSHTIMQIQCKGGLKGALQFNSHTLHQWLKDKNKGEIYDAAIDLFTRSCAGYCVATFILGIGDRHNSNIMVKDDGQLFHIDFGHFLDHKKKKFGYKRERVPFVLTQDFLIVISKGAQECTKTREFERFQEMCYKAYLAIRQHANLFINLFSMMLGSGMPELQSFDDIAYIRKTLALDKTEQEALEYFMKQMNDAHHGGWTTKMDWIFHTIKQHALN

Structure (SMILES) | remaining binding at 1 µM (ADCK3) [%] | remaining binding at 1 µM (BRAF(V600E)) [%] | remaining binding at 1 µM (PIK3CA(E542K)) [%] | remaining binding at 1 µM (PRKCH) [%] | remaining binding at 1 µM (SIK) [%] | remaining binding at 1 µM (SNRK) [%] | remaining binding at 1 µM (TAOK2) [%] | remaining binding at 1 µM (TXK) [%]
Clc1cc(NCC2CC2)c2ncc(-c3ccc4[nH]ncc4c3)n2n1 [compound 2, 6-Chloro-N-(cyclopropylmethyl)-3-(1H-indazol-5-yl)imidazo[1,2-b]pyridazin-8-amine] | 79 | 99 | 72 | 96 | 98 | 99 | 87 | 85
O=C(CN1CCOCC1)N[C@H]1CC[C@H](Nc2cc(Cl)nn3c(-c4ccc5[nH]ncc5c4)cnc23)CC1 [compound 26] | 88 | 89 | 93 | 100 | 89 | 100 | 100 | 88
CN1CCC(CNc2cc(Cl)nn3c(-c4cc5nc(Nc6ccccc6)[nH]c5cc4F)cnc23)CC1 [compound 31, 6-Chloro-3-(6-fluoro-2-(phenylamino)-1H-benzo[d]imidazol-5-yl)-N-((1-methylpiperidin-4-yl)methyl)imidazo[1,2-b]pyridazin-8-amine] | 85 | 98 | 65 | 100 | 91 | 79 | 98 | 93
